Experimental data: publication PMC12246082, “Structural basis for catalysis by human lipoyl synthase” (Nature Communications, 2025)
Ends that are not written are not given here. * marks the point of attachment. Octanoyl = CCCCCCCC(=O)*

Assays:
[1] = biological target: T1, human LIAS (lipoyl synthase) (Homo sapiens, UniProt O43766); test: X-ray crystal structure, […] Å; format: binding; details: co-crystallised with 5'-dAH and OCT-8mer, anaerobic; bidentate to unique Fe of radical SAM [Fe4S4] cluster
T1 construct: residues 65-372, N-terminal His6-tag with 10-aa linker kept (pET-28a), E. coli BL21(DE3) with pDB1282; two [Fe4S4] clusters; monomeric in asymmetric unit of 8TRW
T1 sequence (O43766 65-372): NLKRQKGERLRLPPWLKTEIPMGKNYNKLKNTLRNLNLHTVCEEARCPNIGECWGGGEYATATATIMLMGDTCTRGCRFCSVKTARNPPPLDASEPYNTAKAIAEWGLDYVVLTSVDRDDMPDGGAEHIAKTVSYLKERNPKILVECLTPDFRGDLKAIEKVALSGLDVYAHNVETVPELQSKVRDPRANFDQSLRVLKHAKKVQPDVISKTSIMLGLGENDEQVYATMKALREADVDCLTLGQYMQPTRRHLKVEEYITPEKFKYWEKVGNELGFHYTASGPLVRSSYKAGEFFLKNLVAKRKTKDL

[2] = biological target: T2, truncated human lipoyl synthase (LIAS isoform 1, aa 65–372) (human); test: crystal structure; LIAS (8 mg/ml) co-crystallised with 2.5 mM L-Met, 1 mM 5’-dAH and a 1.3x molar ratio of OCT-8mer; anaerobic, hanging drop, 0.1 M HEPES pH 7.5, 0.2 M Na2SO4, 30% PEG 3350, 3% trehalose; details: both partners purified
T2 construct: lipoyl synthase (LIAS), human, isoform 1, residues 65-372; Holds two [Fe4S4] clusters (RS and auxiliary); in the complex with Hpro the auxiliary cluster is [Fe3S3:1 mercaptooctanoyllysyl]; also called human LIAS; trnLIAS; source: E. coli BL21 (DE3) co-transformed with pDB1282, purified anaerobically (Ni-NTA, size-exclusion S-200); not shown: His6 (separated from the protein by a ten aa linker), …
T2 chain: T1 sequence (O43766 65-372)

## CSCC[C@H](N)C(=O)O [Met, methionine]
[1]
  X-ray crystal structure, 1.58 Å: The oxygen and nitrogen atoms of Met are coordinated to the unique iron

B1: octanoyl-containing eight amino acid peptide substrate mimic, Glu-Ser-Val-(N6-octanoyl)Lys-Ala-Ala-Ser-Asp (peptide)
peptide: ESVK(Octanoyl)AASD
notes: printed in three-letter code; human Hpro 104-111 is ESVKAASE; also called OCT-8mer; OCT-8-mer; source: synthetic peptide, custom-synthesized by Proimmune (Oxford, UK)
[2]
  binding result: binds
